Assay results reported in patent US7749969B2, “N- or C- terminally modified small peptides” (Zealand Pharma A/S, priority 2005, dated 2010).
Square brackets hold non-standard residues; d marks the D form. Peptide text beside a SMILES is read from it. * marks the point of attachment. Bz = O=C(c1ccccc1)*

How the values were obtained:
[1] = PAMPA-BBB permeability test (brain lipid artificial membrane); assay type: in vitro ADME; details: brain lipid 20% in dodecane; pH 7.4 buffer; 14 hr diffusion
Source text: The compounds of the invention show desirable pharmacokinetic profiles as evidenced from data obtained when testing the permeability of the compounds across a synthetic biomimetic membrane that resembles the blood brain barrier (PAMPA-BBB) and the compounds ability to inhibit the activity of cytochrome P 450 oxidase isozyme 3A4. Normally it is desirous to avoid having drugs targeting the cardiovascular systems and other non-CNS ailments such as osteoporosis being less able to cross the blood brain barrier and thus penetrate into the central nervous system.
Permeability test: Compounds in DMSO solution are added to pH 7.4 buffer in a 96 well plate (“donor”). The buffer is placed in contact with a 96 well filter plate in which the pours have been filled with an artificial membrane (2% phosphatidyl choline in dodecane). The top wells of the filter plate are filled with aqueous buffer (“acceptor”). Compound molecules diffuse into the artificial membrane and then into the acceptor buffer. After a 14 hr diffusion experiment, the donor and acceptor wells are measured on a UV plate reader and compared to a standard. The experiment is termed “PAMPA”. Permeability-BBB: The PAMPA experiment above is repeated using brain lipid (20% in dodecane) to provide a prediction of blood-brain barrier permeation by passive diffusion.

[2] = system: calcium-induced arrhythmias; assay: Calcium-induced arrhythmia model (time lag to conduction block after CaCl2 infusion); assay type: in vivo, mouse; details: male NMRI mice; 1 nmol/kg i.v. 3 min before CaCl2 infusion; (tarr test compound − tarr vehicle)×100/tarr vehicle
Procedure: Peptides suitable for administration to cardiac cells can be identified in an in vivo model of calcium-induced arrhythmias according to the model of Lynch et al. (1981) J Cardiovasc. Pharmacol. 3:49-60. Mice (25-30 g) are anaesthetized with a neurolept anaesthetic combination and an i.v. cannula is inserted into the tail vein. A lead II ECG signal is recorded continuously by positioning a stainless steel ECG electrodes on the right forelimb and on the left hind limb. The ground electrode is placed on the right hind limb. The signal is amplified (×5.000-10.000) and filtered (0.1-150 Hz) via a Hugo Sachs Electronic model 689 ECG module. The analogue signal is digitized via a 12 bit data acquisition board (Data Translation model DT321) and sampled at 1000 Hz using the Notocord HEM 3.1 software for Windows NT. After a 10-minute equilibration period, the test sample of compound is injected into the tail vein. Mice pre-treated with buffer are tested as a measure of the control level in untreated animals. The injection volume is 100 μl in all experiments.
Infusion of CaCl2 (30 mg/ml, 0.1 ml/min≈100 mg/kg/min (calcium chloride-2-hydrate, Riedel-de Haën, Germany)) is started 3 min after i.v. administration of drug or vehicle. The time lag to onset of 2nd degree AV-block is determined as the time from the start of CaCl2 infusion until the first arrhythmic event occurs. An event of 2nd degree AV-block is defined as intermittent failure of the AV conduction characterised by a P-wave without the concomitant QRS complex.
Responses are expressed relative to the time until 2nd degree AV-block occurred in vehicle treated mice. The maximal effect of compounds (e.g., N- or C-terminally modified peptides of the invention, AAP, AAP10 or controls) is determined. […] Preferably, the compounds provide at least about 40% of the activity of AAP, for example at least about 50% of the activity of AAP, such as about 60% of the activity of AAP, for example at least about 70% of the activity of AAP, such as at least about 80% of the activity of AAP, for example at least about 90% of the activity of AAP, for example at least about substantially the same activity of AAP, such as about 110% of the activity of AAP, for example at least about 120% of the activity of AAP, such as at least about 130% of the activity of AAP, for example at least about 140% of the activity of AAP, such as about 150% of the activity of AAP, for example at least about 160% of the activity of AAP, such as at least about 170% of the activity of AAP, for example at least about 180% of the activity of AAP, preferably at least about 190% of the activity of AAP, more preferably at least about 200 or greater % of the activity of AAP (i.e., the compounds show time lags of approximately the same duration as induced by AAP).
The anti-arrhythmic effect of the present compounds was tested in a model of calcium-induced arrhythmias according to the model of Lynch et al., J. Cardiovasc. Pharmacol. (1981), 3: 49-60. Male NMRI mice (25-30 grams; Bomholdtgaard, L I. Skendsved, Denmark) were anesthetized with a neurolept anesthetic combination (Hynorm® (fentanyl citrate 0.315 mg/mL and fuanisone 10 mg/mL) and midazolam at 5 mg/mL. Commercial solutions of Hynorm® and midazolam were diluted 1:1 in distilled water, and one part Hynorm® was mixed with one part diluted midazolam. Anesthesia is induced by s.c. administration of this solution in a dose of 50-75 μL/10 gram mouse.
An intravenous cannula was inserted into the tail vein. The lead II ECG signal was recorded continuously by positioning of stainless steel ECG electrodes on the right forelimb and on the left hind limb. The ground electrode was placed on the right hind limb. The signal was amplified (×5.000-10.000) and filtered (0.1-150 Hz) via a Hugo Sachs Electronic model 689 ECG module. […]

CYP 3A4 = CYP 3A4 (Homo sapiens, UniProt P08684); assay: Cytochrome P450 oxidase (CYP) inhibition, fluorescent probe; assay type: in vitro ADME; details: recombinant human CYP isozyme 3A4
Source text: Cytochrome P450 enzymes (CYPs) constitute a superfamily of heme proteins involved in the metabolism of endogenous and exogenous compounds in living organisms. In particular, a number of CYP isozymes are important in the oxidative metabolism of drug molecules. Interactions with these enzymes could lead to altered pharmacokinetic parameters, such as half life, Cmax, or AUC of other co-administered drug molecules. To reduce this kind of interaction in vitro screening of drug candidates for inhibition of drug-metabolizing CYPs has been carried out.
Cytochrome P oxidase (CYP) Inhibition: The compound solution is added to a mixture of recombinant human CYP isozymes, NADPH regenerating solution, buffer, and “probe” compounds for each isozyme. The degree of reduction in the rate of metabolism of the probe to a fluorescent metabolite is an indication of the potential CYP inhibition of the test compound. The CYP 450 isozyme tested is 3A4.

Sequence of CYP 3A4 (P08684 whole entry): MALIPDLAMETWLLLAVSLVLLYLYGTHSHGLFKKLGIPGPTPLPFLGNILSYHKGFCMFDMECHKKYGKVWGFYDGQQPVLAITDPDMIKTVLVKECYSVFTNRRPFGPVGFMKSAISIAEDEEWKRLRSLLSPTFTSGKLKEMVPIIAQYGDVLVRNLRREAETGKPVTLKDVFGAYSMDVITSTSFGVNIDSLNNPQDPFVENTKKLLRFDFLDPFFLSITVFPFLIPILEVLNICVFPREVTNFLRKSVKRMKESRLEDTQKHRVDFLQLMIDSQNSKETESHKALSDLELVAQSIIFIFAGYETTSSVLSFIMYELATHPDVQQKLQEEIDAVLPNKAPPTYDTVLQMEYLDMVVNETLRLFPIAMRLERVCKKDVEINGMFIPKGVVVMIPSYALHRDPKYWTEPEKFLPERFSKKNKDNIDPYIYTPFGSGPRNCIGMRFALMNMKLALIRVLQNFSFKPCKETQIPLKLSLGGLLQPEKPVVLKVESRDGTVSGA

Molecule | PAMPA-BBB [1] | % response (increase of time lag to onset of arrhythmias relative to vehicle) [2] [%] | CYP450 Inhibition at 3 μM (% Inhibition) CYP 3A4 (CYP 3A4)
NCC(=O)N[C@@H](CC(N)=O)C(=O)NCc1ccc2ccc3cccc4ccc1c2c34 [Compound 12, H-Gly-Asn-NH(pyrenylmethyl)] | 0 10^−6 cm/s | 38.0 | <15 % Inhibition
CN(CC(=O)O)C(=O)[C@@H](N)CCCCNC(=O)c1ccc([N+](=O)[O-])cc1 [WO2004/048400 8, H-K(4-nitrobenzoyl)-Sar-OH, reference compound] |  |  | 15–25 % Inhibition
H-Gly-Asn-NH(4-nitrophenyl) [Compound 10] | 0 10^−6 cm/s | 38.0 | <15 % Inhibition
NC(=O)C[C@@H](NC(=O)Cc1cc(=O)oc2cc(O)ccc12)C(=O)NCC(=O)O [Compound 15, N-(7-hydroxycoumarin-4-acetyl)-D-Asn-Gly-OH] |  | 28.5 | 
N[C@@H](CCCCNC(=O)c1ccc([N+](=O)[O-])cc1)C(=O)NCC(=O)O [WO2004/048400 7, H-K(4-nitrobenzoyl)-G-OH, reference compound] |  |  | 15–25 % Inhibition
N[C@H](CCCCNC(=O)c1ccccc1)C(=O)NCC(=O)O [WO2004/048400 23, H-DLys(benzoyl)-G-OH, reference compound] (H-[dK](Bz)-Gly-OH) |  |  | 15–25 % Inhibition
NC(=O)CNC(=O)[C@H](CC(N)=O)NC(=O)Cc1cc(=O)oc2cc(O)ccc12 [Compound 1, N-(7-hydroxycoumarin-4-acetyl)-Asn-Gly-NH2] |  | 20.9 | 
NC(=O)[C@H](Cc1ccc(O)cc1)NC(=O)CNC(=O)CO [Compound 2, N-(hydroxyacetyl)-Gly-Tyr-NH2] |  | 48.7 | 
NC(=O)C[C@H](NC(=O)CS)C(=O)N[C@@H](Cc1ccc(O)cc1)C(N)=O [Compound 7, N-(thiohydroxyacteyl)-Asn-Tyr-NH2] | 0 10^−6 cm/s |  | <15 % Inhibition
COc1ccc(CNC(=O)C[C@H](N)C(=O)N[C@H](C)C(=O)O)cc1 [WO2004/048400 80, H-Asn(4-methoxybenzyl)-DAla-OH, reference compound] |  |  | 15–25 % Inhibition
COCC(=O)N[C@@H](CC(N)=O)C(=O)N[C@@H](Cc1ccc(O)cc1)C(N)=O [Compound 16, (Methoxyacetyl)-Asn-Tyr-NH2] | 0 10^−6 cm/s |  | <15 % Inhibition
CC(=O)OCC(=O)N[C@@H](CC(N)=O)C(=O)N[C@@H](Cc1ccc(O)cc1)C(N)=O [Compound 8] | 0 10^−6 cm/s | 16.5 | <15 % Inhibition
